Consider one molecule from publication PMC7835894 (Molecules, 2021).

In the experiment the test system is Caco-2. The experiment can be described thus: MTT antiproliferation assay. It counts as cell-based, human. Conditions: Homo sapiens; Caco-2, MTT, 24 h, single agent, mean ± SEM. As to the method: The antiproliferation and cytotoxicity were assessed using 3-(4,5-dimethylthiazol-2-yl)-2,5-diphenyltetrazolium bromide (MTT, Serva) colorimetric assay. To investigate the antiproliferation, all cell lines were seeded at a density of 20,000 cells per well in 96-well plates and allowed to adhere overnight. […] These concentrations were prepared by diluting the stock solutions with serum-free culture media. The negative control cells were those treated with 0.1% DMSO solvent alone. The treated cells were handled in reduced light and maintained under standard culture growth conditions for 24 h. After the incubation period, MTT powder was prepared as a stock solution (5 mg/mL) and 20 μL of the MTT working reagent (final concentration 0.5 mg/mL) was added to each well. This was followed by incubation with MTT reagent for 4 h in a humidified atmosphere (37 °C, 5% CO2) with subsequent addition of 150 μL of DMSO solubilizing solvent and incubation for 20 min. The absorbance of solubilized violet formazan crystals was measured at 540 nm with Biotek 800 TS microplate reader. IC50 was calculated as the concentration of retinoid that produced 50% cell growth inhibition. For cytotoxicity assessment, WI-38 normal human fibroblast cells were used for the calculation of SI which is the ratio of IC50 retinoid (WI-38)/IC50 retinoid (cancer cell line).
(In general: Tetrazolium dyes change colour on reduction, which living cells bring about.)

For orientation: IC50 means the concentration needed to halve the response being measured. Regarding `O=c1[nH]cc(F)c(=O)[nH]1` [5-FU, 5-fluorouracil, reference compound], the IC50 is 18.4 ± 0.6 µM.
